This note sets out measurements from patent US10189819B2, “Factor IXa inhibitors” (MERCK SHARP & DOHME CORP., priority 2014, dated 2019).

Structures are written as SMILES. Like-named read-outs stand apart in the source and are kept apart here.

The test deals with Factor IXa (Homo sapiens (Human), UniProt P00740). As to the kind of experiment: Determination of inhibitory activity against Factor IXa (cleavage of fluorescent peptide CH3SO2-D-CHG-Gly-Arg-AFC). It counts as biochemical. As to the method: Determination of Inhibitory Activity Against Factor IXa
Chain of Factor IXa (P00740 227-461): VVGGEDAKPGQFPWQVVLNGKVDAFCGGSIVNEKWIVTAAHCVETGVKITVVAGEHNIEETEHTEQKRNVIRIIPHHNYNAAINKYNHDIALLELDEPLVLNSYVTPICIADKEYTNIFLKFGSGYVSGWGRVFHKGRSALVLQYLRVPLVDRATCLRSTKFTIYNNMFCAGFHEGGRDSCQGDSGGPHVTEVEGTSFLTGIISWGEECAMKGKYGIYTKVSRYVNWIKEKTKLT
Chain of Factor IXa (P00740 47-191 partner): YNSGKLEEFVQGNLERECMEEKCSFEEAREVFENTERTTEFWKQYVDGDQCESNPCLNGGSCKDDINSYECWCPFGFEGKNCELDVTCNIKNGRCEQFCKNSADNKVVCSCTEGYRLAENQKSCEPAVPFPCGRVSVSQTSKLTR
Formation of a clot to stem bleeding at a site of blood vessel injury involves the coordinated activity of a group of plasma proteins that initiate and propagate fibrin formation and subsequently protect fibrin from premature degradation. Factor IX is a key component of the plasma system that forms a fibrin clot at a site of vascular injury. The activity of Factor IXa is measured by monitoring the cleavage of the fluorescent peptide, CH3SO2-D-CHG-Gly-Arg-AFC.AcOH (“CHG” is cyclohexyl-glycine and “AFC” is trifluoro aminomethyl coumarin). Factor IXa cleaves the amide bond between Arg and AFC, thereby releasing the AFC fluorophore. The free AFC can be detected with a fluorescence detector at an excitation wavelength of 405 nm and emission wavelength of 510 nm.

For the compound `CCOC(=O)c1ccc([C@H](CNC(=O)c2c(Cl)cc(-n3cnc(C)n3)cc2Cl)c2nc3cc(OC)c(Cl)cc3[nH]2)cc1` [Example 65], the IC50 (read-out: hFIXa IC50) was found to be 5.6 nM.
On the same count and under the same terms, under `Cc1cc2nc(C(CNC(=O)c3ccc(-n4cnnc4)cc3Cl)c3cccnc3)[nH]c2cc1C` (stereo not shown) [Example 56] stands 15.3 nM.
As to `Cc1cc2nc(C(CNC(=O)c3ccc(-n4cnnc4)cc3Cl)c3ccc(F)cc3)[nH]c2cc1C` (stereo not shown) [Example 52], the IC50 (read-out: hFIXa IC50) was determined as 8.42 nM.
The same measure, in the same setting: under `Cc1ccc(F)c2nc([C@@H](CNC(=O)c3ccc(-n4cnn(C)c4=O)cc3Cl)c3cccc(F)c3)[nH]c(=O)c12` [Example 109] stands 1.8 nM; under `Cc1cc2nc(C(CNC(=O)c3c(Cl)cc(-c4cnc5c(c4)CCC(=O)N5)cc3Cl)c3ccccc3)[nH]c2cc1C` (stereo not shown) [Example 20], 276 nM; under `Cc1cc2nc(C(CNC(=O)c3c(Cl)cc(-c4cn[nH]c4)cc3Cl)c3ccccc3)[nH]c2cc1C` (stereo not shown) [Example 32], 503 nM.
Consider `Cc1cc2nc([C@@H](CNC(=O)c3c(Cl)cc(-n4cnnc4)cc3Cl)c3cncc(F)c3)[nH]c2cc1C` [Example 38, (R)-2,6-Dichloro-N-(2-(5,6-dimethyl-1H-benzo[d]imidazol-2-yl)-2-(5-fluoropyridin-3-yl)ethyl)-4-(4H-1,2,4-triazol-4-yl)benzamide], for which, where the note is “read-out: FIXa IC50”, the IC50 worked out at 14.8 nM.
Take `Cc1cc2nc(C(CNC(=O)c3c(Cl)cc(-c4ccnc(C(=O)O)c4)cc3Cl)c3ccccc3)[nH]c2cc1C` (stereo not shown) [Example 16, 4-(3,5-Dichloro-4-((2-(5,6-dimethyl-1H-benzo[d]imidazol-2-yl)-2-phenylethyl)carbamoyl)phenyl)picolinic acid]: the IC50 (read-out: FIXa IC50) turned out to be 73.6 nM.
Regarding `Cc1ccc(F)c2nc([C@@H](CNC(=O)c3ccc(-n4cnc(CCO)c4)cc3Cl)c3cccc(F)c3)[nH]c(=O)c12` [Example 107], for the setting “read-out: hFIXa IC50”, the half-inhibitory concentration (IC50) stood at 7.3 nM.
Consider `Cc1ncn(-c2cc(Cl)c(C(=O)NCC(c3cccc(F)c3)c3cc4nc(C)[nH]c4cn3)c(Cl)c2)n1` (stereo not shown) [Example 81], for which the IC50 (read-out: hFIXa IC50) is 126 nM.
With `Cc1cc2nc([C@@H](CNC(=O)c3ccc(-n4cnnc4)cc3Cl)c3ccccc3)[nH]c2cc1C` [Example 37, (R)-2-Chloro-N-(2-(5,6-dimethyl-1H-benzo[d]imidazol-2-yl)-2-phenylethyl)-4-(4H-1,2,4-triazol-4-yl)benzamide], the IC50 (read-out: FIXa IC50) was found to be 15.7 nM.
Consider `Cc1ncn(-c2cc(Cl)c(C(=O)NC[C@@H](c3cccc(F)c3)c3cnc4[nH]c(C)cc4c3)c(Cl)c2)n1` [Example 77], for which the IC50 (read-out: hFIXa IC50) came to 3.7 nM.
On to `COC(=O)Cc1cccc(C(CNC(=O)c2c(Cl)cc(-n3cnc(C)n3)cc2Cl)c2nc3cc(OC)c(Cl)cc3[nH]2)c1` (stereo not shown) [Example 64], for which the IC50 (read-out: hFIXa IC50) came to 6.1 nM.
`Cc1cc2nc([C@@H](CNC(=O)c3c(Cl)cc(-n4cnnn4)cc3Cl)c3ccccc3)[nH]c2cc1C` [Example 2, (R)-2,6-dichloro-N-(2-(5,6-dimethyl-1H-benzo[d]imidazol-2-yl)-2-phenylethyl)-4-(1H-tetrazol-1-yl)benzamide]: where the note is “read-out: FIXa IC50”, the IC50 came to 26.4 nM.
On to `Cc1cccc2nc([C@@H](CNC(=O)c3ccc(-n4cnnc4)cc3Cl)c3ccccc3)[nH]c(=O)c12` [Example 100], for which, under “read-out: hFIXa IC50”, the IC50 was found to be 16.8 nM.
Same read-out and setting: for `COc1cc2nc([C@@H](CNC(=O)c3c(Cl)cc(-n4cnc(C)n4)cc3Cl)n3cc(CN(C)C)nn3)[nH]c2cc1Cl` [Example 72] the value was 67.2 nM.
`COc1ccc2nc(C(CNC(=O)c3c(Cl)cc(-n4cnc(C)n4)cc3Cl)c3cccc(F)c3)[nH]c2c1` (stereo not shown) [Example 49]: the IC50 (read-out: hFIXa IC50) turned out to be 49.1 nM.
Same read-out and setting: under `Cc1ccc(F)c2nc(C(CNC(=O)c3ccc(-n4cnnc4)cc3Cl)c3ccccc3)[nH]c(=O)c12` (stereo not shown) [Example 101] stands 6.68 nM; under `Cc1ccc2c([C@H](CNC(=O)c3ccc(-n4cnnc4)cc3Cl)c3cccc(F)c3)c[nH]c2c1` [Example 87], 31.1 nM; under `Cc1cc2nc(C(CNC(=O)c3c(Cl)cc(-c4ccn5ncnc5c4)cc3Cl)c3ccccc3)[nH]c2cc1C` (stereo not shown) [Example 28], 64.8 nM.
As to `Cc1ncn(-c2cc(Cl)c(C(=O)NC[C@@H](c3cccc(F)c3)c3nc4c(F)ccc(C)c4c(=O)[nH]3)c(Cl)c2)n1` [Example 92, (R)-2,6-dichloro-N-(2-(8-fluoro-5-methyl-4-oxo-3,4-dihydroquinazolin-2-yl)-2-(3-fluorophenyl)ethyl)-4-(3-methyl-1H-1,2,4-triazol-1-yl)benzamide], the IC50 (read-out: FIXa IC50) was found to be 1 nM.
Regarding `Cc1ncn(-c2cc(Cl)c(C(=O)NC[C@@H](c3cccc(F)c3)c3ccc4[nH]c(C)nc4n3)c(Cl)c2)n1` [Example 80], the 50% inhibitory concentration (IC50) (read-out: hFIXa IC50) is 16.9 nM.
As to `Cc1cc2nc(C(CNC(=O)c3ccc(-c4ccnc(C(=O)O)c4)cc3Cl)c3ccccc3)[nH]c2cc1C` (stereo not shown) [Example 33], the IC50 (read-out: hFIXa IC50) worked out at 538 nM.
For `Cc1ccc2c(cnn2[C@H](CNC(=O)c2ccc(-n3cnnc3)cc2Cl)c2ccccc2)c1` [Example 85, (S)-2-chloro-N-(2-(5-methyl-1H-indazol-1-yl)-2-phenylethyl)-4-(4H-1,2,4-triazol-4-yl)benzamide], the IC50 (read-out: FIXa IC50) came out at 38 nM.
Turning to `Cc1cc2nc(C(CNC(=O)c3c(Cl)cc(-c4ccnc(CO)c4)cc3Cl)c3ccccc3)[nH]c2cc1C` (stereo not shown) [Example 36], where the note is “read-out: hFIXa IC50”, the IC50 turned out to be 52.5 nM.
As to `Cc1cc2nc(C(C)(CNC(=O)c3ccc(-n4cnnc4)cc3Cl)c3ccccc3)[nH]c2cc1C` (single isomer, unassigned) [Example 69], the IC50 (read-out: FIXa IC50) amounted to 55.2 nM.
Regarding `O=C(NCC(c1ccccc1)c1nc2cc(Cl)ccc2c(=O)[nH]1)c1ccc(-n2cnnc2)cc1Cl` (stereo not shown) [Example 95], the IC50 (read-out: hFIXa IC50) came to 803 nM.
On to `Cc1ncn(-c2cc(Cl)c(C(=O)NC[C@@H](c3cccc(F)c3)c3ccc4[nH]c(C)nc4c3)c(Cl)c2)n1` [Example 75, (R)-2,6-dichloro-N-(2-(3-fluorophenyl)-2-(2-methyl-1H-benzo[d]imidazol-5-yl)ethyl)-4-(3-methyl-1H-1,2,4-triazol-1-yl)benzamide], for which the IC50 (read-out: FIXa IC50) was 9.1 nM.
Turning to `Cc1cc2nc(C(CNC(=O)c3c(Cl)cc(-c4ccc5nncn5c4)cc3Cl)c3ccccc3)[nH]c2cc1C` (stereo not shown) [Example 27], the half-maximal inhibitory concentration (IC50) (read-out: hFIXa IC50) stood at 21 nM.
Still for that read-out and setting: for `Cc1ncn(-c2cc(Cl)c(C(=O)NC[C@@H](c3cccc(F)c3)c3ccc4[nH]c(C)nc4c3F)c(Cl)c2)n1` [Example 78] the value was 1.93 nM; for `COc1cc2nc([C@@H](CNC(=O)c3c(Cl)cc(-n4cnc(C)n4)cc3Cl)c3ccc(C(=O)N(C)C)cc3)[nH]c2cc1Cl` [Example 63], 27.7 nM; for `Cc1cc2nc(C(CNC(=O)c3ccc(-n4cnnc4)cc3Cl)c3ccccc3F)[nH]c2cc1C` (stereo not shown) [Example 51], 19.3 nM.
On to `Cc1cc2nc(C(CNC(=O)c3c(Cl)cc(-c4ccc(CO)nc4)cc3Cl)c3ccccc3)[nH]c2cc1C` (stereo not shown) [Example 35], for which the IC50 (read-out: hFIXa IC50) turned out to be 42.7 nM.
Regarding `Cc1ncn(-c2ccc(C(=O)NC[C@@H](c3ccccc3)c3nc4c(F)ccc(C)c4c(=O)[nH]3)c(Cl)c2)n1` [Example 102], the IC50 (read-out: hFIXa IC50) is 10.7 nM.
The same measure, in the same setting: for `Cc1cc2nc(C(CNC(=O)c3c(Cl)cc(-n4cnnc4)cc3OC(F)(F)F)c3ccccc3)[nH]c2cc1C` (stereo not shown) [Example 14] the value was 40 nM.
As for `COc1ccc(C(CNC(=O)c2c(Cl)cc(-n3cnc(C)n3)cc2Cl)c2nc3ccc(Cl)cc3[nH]2)cn1` (racemic) [Example 40, (±)-2,6-Dichloro-N-(2-(6-chloro-1H-benzo[d]imidazol-2-yl)-2-(6-methoxypyridin-3-yl)ethyl)-4-(3-methyl-1H-1,2,4-triazol-1-yl)benzamide], the IC50 (read-out: FIXa IC50) turned out to be 32.7 nM.
Take `Cc1cc2nc(C(CNC(=O)c3c(Cl)cc(-c4cnc5ccccc5c4)cc3Cl)c3ccccc3)[nH]c2cc1C` (stereo not shown) [Example 25]: the IC50 (read-out: hFIXa IC50) is 464 nM.
Take `O=C(NC[C@@H](c1ccccc1)c1nc2c(Cl)cccc2c(=O)[nH]1)c1ccc(-n2cnnc2)cc1Cl` [Example 98]: the IC50 (read-out: hFIXa IC50) was 178 nM.
Same read-out and setting: under `Cc1cc2nc(C(CNC(=O)c3c(Cl)cc(-c4cnc5c(c4)CNC5=O)cc3Cl)c3ccccc3)[nH]c2cc1C` (stereo not shown) [Example 24] stands 141 nM; under `COc1cc2nc(C(CNC(=O)c3c(Cl)cc(-n4cnc(C)n4)cc3Cl)c3cccc(F)c3)[nH]c2cc1Cl` (stereo not shown) [Example 48], 2.86 nM.
Still for that read-out and setting: for `Cc1ccc(F)c2nc([C@@H](CNC(=O)c3ccc(-n4cnnc4C(F)F)cc3Cl)c3cccc(F)c3)[nH]c(=O)c12` [Example 111] the value was 9.6 nM; for `COc1cc([C@@H](CNC(=O)c2c(Cl)cc(-n3cnc(C)n3)cc2Cl)c2cccc(F)c2)nc2c(F)ccc(C)c12` [Example 114], 52.2 nM; for `Cc1cc2nc(C(CNC(=O)c3c(Cl)cc(-c4cnn(CS(C)(=O)=O)c4)cc3Cl)c3ccccc3)[nH]c2cc1C` (stereo not shown) [Example 18], 403 nM.
Regarding `CCOC(=O)c1cc(-c2ccc(C(=O)NCC(c3ccccc3)c3nc4cc(C)c(C)cc4[nH]3)c(Cl)c2)ccn1` (stereo not shown) [Example 30], for the setting “read-out: hFIXa IC50”, the half-maximal inhibitory concentration (IC50) came out at 247 nM.
In the case of `Cc1ncn(-c2cc(Cl)c(C(=O)NC[C@@H](c3cccc(F)c3)c3ccc4sc(C)nc4c3)c(Cl)c2)n1` [Example 83, (R)-2,6-dichloro-N-(2-(3-fluorophenyl)-2-(2-methylbenzo[d]thiazol-5-yl)ethyl)-4-(3-methyl-1H-1,2,4-triazol-1-yl)benzamide], the IC50 (read-out: FIXa IC50) came to 59.5 nM.
With `O=C(O)c1ccc2c(c1)ncn2-c1ccc(C(=O)NCC(c2cccc(F)c2)c2nc3c(F)ccc(Cl)c3c(=O)[nH]2)c(Cl)c1` (stereo not shown) [Example 105], the IC50 (read-out: hFIXa IC50) was 3.32 nM.
On the same count and under the same terms, for `Cc1ncn(-c2cc(Cl)c(C(=O)NCC(c3cccc(F)c3)c3nc4c(C)cc(Cl)cc4[nH]3)c(Cl)c2)n1` (stereo not shown) [Example 47] the value was 6.18 nM; for `Cc1ncn(-c2ccc(C(=O)NC[C@@H](c3cccc(F)c3)c3nc4c(F)ccc(C)c4c(=O)[nH]3)c(Cl)c2)n1` [Example 103], 6.35 nM.
Regarding `COc1cc2nc([C@@H](CNC(=O)c3c(Cl)cc(-n4cnc(C)n4)cc3Cl)c3cccc(C(=O)NC4CC4)c3)[nH]c2cc1Cl` [Example 67], for the setting “read-out: hFIXa IC50”, the IC50 was determined as 2.9 nM.
